Several values for one entry are separate records, joined by “and”; a condition that tells them apart may be missing. Identical values can stand only once.
Key:
[1] = PFAS levels in serum samples of airport employees (LC/MS/MS); conditions: for Serum level in the first samples, median (range) / Relative composition of PFAS in serum, molar concentration basis / Relative composition of PFAS in serum, weight basis / Serum concentration, molar basis / Serum concentration, weight basis: all 26 airport employees; for Relative composition of PFAS in serum, molar concentration basis / Relative composition of PFAS in serum, weight basis: first serum samples; for Serum concentration, molar basis / Serum concentration, weight basis: median of first serum samples; for Serum level, median (range): second to fifth samplings, 17 airport employees
Summary of the method: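 Serum from airport employees, drawn after contaminated drinking-water exposure ended, up to five monthly rounds, all reanalyzed in one batch. 25 μL serum precipitated with acetonitrile/methanol plus labeled internal standards; LC/MS/MS on BEH C18 with ammonium acetate/methanol gradient, calibrants prepared in FBS.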

[2] = Individual serum elimination rate and half-life (linear regression per employee); conditions: individual estimate; for half-life: human, serum, oral, HL (half-life)
Summary of the method: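 Log-transformed serum PFAS concentrations regressed on days since clean bottled water supply, per employee, assuming one-compartment first-order elimination. Individual k taken as −β (negative slope); half-life as ln2/k for each PFAS. No half-life calculated when β was positive.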

[3] = 1st sampling (September 2018), count 17
[4] = 2nd sampling (October 2018), count 17
[5] = 3rd sampling (November, 2018), count 17
[6] = 4th sampling (December 2018), count 16
[7] = 5th sampling (January 2019), count 16
[8] = employees participated in first blood sampling and repeated blood and urine sampling, N=17
[9] = employees participated in first blood sampling only, N=9, 11-14 d after end of exposure

O=S(=O)(O)C(F)(F)C(F)(F)C(F)(F)C(F)(F)C(F)(F)C(F)(F)F [PFHxS, perfluorohexane sulfonic acid]
Serum PFAS level, 25 percentile [1, 3]: 63
Serum PFAS level, 75 percentile [1, 3]: 155
Serum PFAS level, Max [1, 3]: 402
Serum PFAS level, Median [1, 3]: 133
Serum PFAS level, Min [1, 3]: 21
Serum PFAS level, 25 percentile [1, 4]: 57
Serum PFAS level, 75 percentile [1, 4]: 144
Serum PFAS level, Max [1, 4]: 363
Serum PFAS level, Median [1, 4]: 122
Serum PFAS level, Min [1, 4]: 18
Serum PFAS level, 25 percentile [1, 5]: 57
Serum PFAS level, 75 percentile [1, 5]: 150
Serum PFAS level, Max [1, 5]: 392
Serum PFAS level, Median [1, 5]: 119
Serum PFAS level, Min [1, 5]: 20
Serum PFAS level, 25 percentile [1, 6]: 50
Serum PFAS level, 75 percentile [1, 6]: 146
Serum PFAS level, Max [1, 6]: 381
Serum PFAS level, Median [1, 6]: 109
Serum PFAS level, Min [1, 6]: 17
Serum PFAS level, 25 percentile [1, 7]: 64
Serum PFAS level, 75 percentile [1, 7]: 153
Serum PFAS level, Max [1, 7]: 399
Serum PFAS level, Median [1, 7]: 117
Serum PFAS level, Min [1, 7]: 42
Serum level in the first samples, median (range) [1]: 76 (17–402) ng/mL
PFAS in first serum sample, median (range) [1, 8]: 133 (21–402) ng/mL
PFAS in first serum sample, median (range) [1, 9]: 60 (17–85) ng/mL
Initial serum PFAS level, max ([1]; females (N=7)): 183 ng/mL
Initial serum PFAS level, median ([1]; females (N=7)): 74 ng/mL
Initial serum PFAS level, min ([1]; females (N=7)): 21 ng/mL
Relative composition of PFAS in serum, molar concentration basis [1]: 70.4% and 70%
Relative composition of PFAS in serum, weight basis [1]: 68.9%
Initial serum PFAS level, Max ([1]; males (N=19)): 402 ng/mL
Initial serum PFAS level, Min ([1]; males (N=19)): 17 ng/mL
Initial serum PFAS level, median ([1]; males (N=19)): 78 ng/mL
Serum concentration, molar basis [1]: 0.19
Serum concentration, weight basis [1]: 76
Serum level, median (range) [1]: 118 (17–399) ng/mL
half-life ([2]; subject 1, 5 samples): 1280 days
half-life ([2]; subject 2, 5 samples): 730 days
half-life ([2]; subject 3, 5 samples): 548 days
half-life ([2]; subject 4, 5 samples): 3510 days
half-life ([2]; subject 5, 5 samples): 1720 days
half-life ([2]; subject 7, 5 samples): 840 days
half-life ([2]; subject 10, 5 samples): 694 days
half-life ([2]; subject 11, 5 samples): 1100 days
half-life ([2]; subject 12, 5 samples): 584 days
half-life ([2]; subject 13, 5 samples): 511 days
half-life ([2]; subject 14, 4 samples): 438 days
half-life ([2]; subject 15, 5 samples): 804 days
half-life ([2]; subject 16, 5 samples): 6940 days
half-life ([2]; subject 17, 5 samples): 584 days
Elimination rate ([2]; subject 1, 5 samples): 0.2 yearly
Elimination rate ([2]; subject 2, 5 samples): 0.3 yearly
Elimination rate ([2]; subject 3, 5 samples): 0.5 yearly
Elimination rate ([2]; subject 4, 5 samples): 0.1 yearly
Elimination rate ([2]; subject 5, 5 samples): 0.1 yearly
Elimination rate ([2]; subject 6, 4 samples): −0.1 yearly
Elimination rate ([2]; subject 7, 5 samples): 0.3 yearly
Elimination rate ([2]; subject 8, 5 samples): −0.01 yearly
Elimination rate ([2]; subject 9, 5 samples): −0.04 yearly
Elimination rate ([2]; subject 10, 5 samples): 0.4 yearly
Elimination rate ([2]; subject 11, 5 samples): 0.2 yearly
Elimination rate ([2]; subject 12, 5 samples): 0.4 yearly
Elimination rate ([2]; subject 13, 5 samples): 0.5 yearly
Elimination rate ([2]; subject 14, 4 samples): 0.6 yearly
Elimination rate ([2]; subject 15, 5 samples): 0.3 yearly
Elimination rate ([2]; subject 16, 5 samples): 0.04 yearly
Elimination rate ([2]; subject 17, 5 samples): 0.4 yearly

O=C(O)C(F)(F)C(F)(F)C(F)(F)C(F)(F)C(F)(F)C(F)(F)C(F)(F)F [PFOA, perfluorooctanoic acid]
Serum PFAS level, 25 percentile [1, 3]: 8.7
Serum PFAS level, 75 percentile [1, 3]: 16
Serum PFAS level, Max [1, 3]: 31
Serum PFAS level, Median [1, 3]: 13
Serum PFAS level, Min [1, 3]: 5.0
Serum PFAS level, 25 percentile [1, 4]: 8.3
Serum PFAS level, 75 percentile [1, 4]: 14
Serum PFAS level, Max [1, 4]: 28
Serum PFAS level, Median [1, 4]: 11
Serum PFAS level, Min [1, 4]: 4.1
Serum PFAS level, 25 percentile [1, 5]: 7.9
Serum PFAS level, 75 percentile [1, 5]: 14
Serum PFAS level, Max [1, 5]: 28
Serum PFAS level, Median [1, 5]: 11
Serum PFAS level, Min [1, 5]: 4.6
Serum PFAS level, 25 percentile [1, 6]: 7.5
Serum PFAS level, 75 percentile [1, 6]: 13
Serum PFAS level, Max [1, 6]: 27
Serum PFAS level, Median [1, 6]: 10
Serum PFAS level, Min [1, 6]: 4.3
Serum PFAS level, 25 percentile [1, 7]: 8.0
Serum PFAS level, 75 percentile [1, 7]: 14
Serum PFAS level, Max [1, 7]: 27
Serum PFAS level, Median [1, 7]: 10
Serum PFAS level, Min [1, 7]: 4.4
Serum level in the first samples, median (range) [1]: 9.1 (2.9–31) ng/mL
PFAS in first serum sample, median (range) [1, 8]: 13 (5.0–31) ng/mL
PFAS in first serum sample, median (range) [1, 9]: 6.5 (2.9–11) ng/mL
Initial serum PFAS level, max ([1]; females (N=7)): 20 ng/mL
Initial serum PFAS level, median ([1]; females (N=7)): 6.7 ng/mL
Initial serum PFAS level, min ([1]; females (N=7)): 5.0 ng/mL
Relative composition of PFAS in serum, molar concentration basis [1]: 8.1%
Relative composition of PFAS in serum, weight basis [1]: 8.2%
Initial serum PFAS level, Max ([1]; males (N=19)): 31 ng/mL
Initial serum PFAS level, Min ([1]; males (N=19)): 2.9 ng/mL
Initial serum PFAS level, median ([1]; males (N=19)): 11 ng/mL
Serum concentration, molar basis [1]: 0.022
Serum concentration, weight basis [1]: 9.1
Serum level, median (range) [1]: 10 (4.1–28) ng/mL
half-life ([2]; subject 1, 5 samples): 877 days
half-life ([2]; subject 2, 5 samples): 1060 days
half-life ([2]; subject 3, 5 samples): 438 days
half-life ([2]; subject 4, 5 samples): 840 days
half-life ([2]; subject 5, 5 samples): 804 days
half-life ([2]; subject 6, 4 samples): 1060 days
half-life ([2]; subject 7, 5 samples): 584 days
half-life ([2]; subject 9, 5 samples): 694 days
half-life ([2]; subject 10, 5 samples): 767 days
half-life ([2]; subject 11, 5 samples): 548 days
half-life ([2]; subject 12, 5 samples): 365 days
half-life ([2]; subject 13, 5 samples): 584 days
half-life ([2]; subject 14, 4 samples): 584 days
half-life ([2]; subject 15, 5 samples): 402 days
half-life ([2]; subject 16, 5 samples): 986 days
half-life ([2]; subject 17, 5 samples): 438 days
Elimination rate ([2]; subject 1, 5 samples): 0.3 yearly
Elimination rate ([2]; subject 2, 5 samples): 0.2 yearly
Elimination rate ([2]; subject 3, 5 samples): 0.6 yearly
Elimination rate ([2]; subject 4, 5 samples): 0.3 yearly
Elimination rate ([2]; subject 5, 5 samples): 0.3 yearly
Elimination rate ([2]; subject 6, 4 samples): 0.2 yearly
Elimination rate ([2]; subject 7, 5 samples): 0.4 yearly
Elimination rate ([2]; subject 8, 5 samples): 0.007 yearly
Elimination rate ([2]; subject 9, 5 samples): 0.4 yearly
Elimination rate ([2]; subject 10, 5 samples): 0.3 yearly
Elimination rate ([2]; subject 11, 5 samples): 0.5 yearly
Elimination rate ([2]; subject 12, 5 samples): 0.7 yearly
Elimination rate ([2]; subject 13, 5 samples): 0.4 yearly
Elimination rate ([2]; subject 14, 4 samples): 0.4 yearly
Elimination rate ([2]; subject 15, 5 samples): 0.6 yearly
Elimination rate ([2]; subject 16, 5 samples): 0.3 yearly
Elimination rate ([2]; subject 17, 5 samples): 0.6 yearly

Source: PMC7351026, “Serum Half-Lives for Short- and Long-Chain Perfluoroalkyl Acids after Ceasing Exposure from Drinking Water Contaminated by Firefighting Foam” (Environmental Health Perspectives, 2020)
